Source: US9585864B2, “Anticancer formulation” (National Dong Hwa University, priority 2010, dated 2017)

Experiments:
Nur77 = assay: RT-PCR of orphan receptor Nur77 mRNA expression in RG2 cells; format: cell-based, rat; conditions: IC50 concentration of z-Bdph, 0, 0.5, 1, 3 and 6 h
Protocol: To confirm the results of the oligodeoxynucleotide-based microarray analysis, expression of the orphan receptors NOR-1, Nurr1, and Nur77 was examined in z-Bdph-treated RG2 cells by RT-PCR.
RG2 cells were incubated with IC50 concentration of z-Bdph for various time periods (0, 0.5, 1, 3, and 6 h). After incubation, cells were collected and total RNA isolated. Expression of GADPH was used as an internal control.

[1] = tested on: DBTRG-05MG cells (human GBM); assay: Matrigel invasion chamber and PET membrane migration assay; format: cell-based; conditions: 24 hours
Protocol: The invasion of DBTRG-05MG cells was examined using a BioCoat matrigel invasion chamber system (BD Bioscience, Bedford, Mass.). The BD matrigel Matrix is composed of laminin, collagen IV, nidogen/entrctin, and proteoglycan on polyethylene terephthalate (PET) membranes containing 8 μm pores. In the in vitro migration assay, low pore density PET track-etched membrane on Falcon culture insert (BD Bioscience) was applied. The membrane was placed between the upper and lower wells of a Matrigel chamber or Falcon culture inserts. The cells were first resuspended in PRMI 1640 containing 10% fetal bovine serum and seeded into the upper wells of the chamber (50,000 cells per well). After incubating for 24 hours at 37° C., the cells that invaded or migrated through the membrane were stained with Liu stain (Handsel Technologies, Inc., Taipei, Taiwan) and counted under a microscopy. Each experiment was repeated thrice.

JNK, AKT, ERK = assay: Western blot of signaling pathway phosphorylation in RG2 cells; format: cell-based, rat; conditions: 100 μg/ml, treatment for 1 hour
Protocol: Finally, signaling pathways involved in z-Bdph-induced Nur77 gene expression were investigated. RG2 cells were treated with Bdph (100 μg/ml) for various time periods (0, 15, 30, 60, and 180 mins).

[2] = tested on: Axl receptor tyrosine kinase (RTK); assay: RT-PCR and Western blot of Axl expression in GBM cells; format: cell-based
Protocol: Reverse transcriptase-polymerase chain reaction (RT-PCR) was used to examine the effect of z-Bdph on the gene expression profile in GBM cells to elucidate the possible mechanisms of z-Bdph's inhibition of malignant brain tumor.
Western Blot assays were also carried out to examine the Axl protein level of the GBM cells in the presence of z-Bdph.

[3] = tested on: Nur77 in DBTRG-05NG cells (human GBM cells); assay: Nur77 translocation by immunostaining, fluorescence microscopy; format: cell-based; conditions: 100 μg/mL, 24 hours
Protocol: Whether translocation of Nur77 occurred in response to z-Bdph was examined. DBTRG-05NG cells (human GBM cells) were treated with Bdph (100 μg/mL) for 24 hours, then immunostained with anti-Nur77 antibody followed by corresponding Rhodamine-conjugated anti-IgG secondary antibody. Simultaneously, cells were stained with DAPI to display the nuclei. The fluorescent images were visualized with a fluorescence microscope.

## CCC/C=C1\OC(=O)c2ccccc21 [z-Bdph, (Z)-n-butylidenephthalide]
Nur77
  mRNA expression of Nur77: induced in the cells in a time-dependent manner
[1]; BioCoat matrigel invasion chamber
  invasion of DBTRG-05MG cells: inhibited migration and invasion of DBTRG-05MG cells in a dose dependent manner
[1]; PET track-etched membrane
  migration of DBTRG-05MG cells: inhibited migration and invasion of DBTRG-05MG cells in a dose dependent manner
JNK, AKT, ERK
  phosphorylation of JNK, AKT, ERK: JNK, AKT, ERK were significantly phosphorylated
[2]; RT-PCR
  mRNA expression of Axl receptor tyrosine kinase: down-regulated
[2]; Western blot
  Axl protein level: reduced
[3]
  translocation of Nur77: Nur77 was translocated from the nucleus to the cytoplasm
